From US20140315972A1, “RS)-2-(2-oxo-4-phenylpyrrolidin-1-yl)acetamide compound having modulatory activity with a commensurate effect, pharmaceutical substance (variants) and its application, composition (variants) thereof” (priority 2011, published 2014)
Like-named read-outs stand apart in the source and are kept apart here.

Assays:
[1] = Acute toxicity, single intraperitoneal injection in male mice; type: in vivo; conditions: male, white outbred, mouse, in vivo, ip, male mice 18-24 g; single i.p.
Protocol: (§1) Tables 2, 2.1 and 2.2 present the results of acute toxicity studies of the Compounds with active substance content in at least white outbred male mice (body weight 18-24 g) and white outbred rats 30-35 days of age, of both sexes with a single dose. Calculation of toxic doses was made using the Wilcoxon and Litchfield method. Observations were made over 24 hours and 14 days after a single dose.
(§2) LD50 in rat pups after intragastric administration was not found. Intragastric administration to rat pups of doses of more than 1000 mg/kg is technically impossible due to the small volume of the stomach (Table 2.2).

rabbits = test: Transcallosal stimulation induced potential (TSIP); type: in vivo; conditions: for effect on TSIP components (in words): 25-300 mg/kg
mice [2] = test: Acute toxicity, single intraperitoneal injection in male mice; type: in vivo; conditions: male mice 18-24 g; single i.p.
Protocol: as §1, §2

rats = test: Acute toxicity, single intragastric administration in immature rats; type: in vivo; conditions: single intragastric 800 mg/kg
Protocol: as §1, §2

mice [3] = test: Cross maze exploratory behavior, HEF and LEF mice; type: in vivo; conditions: i.p. once a day 5 days, Compounds 1 and 4 100 mg/kg, Piracetam 200 mg/kg
mice [4] = conditions: mice; product of SU No 797219; cited from earlier work
[5] = Piracetam 300-500, Pyritinol 50-150, Phenotropil 25-300 mg/kg

In the case of `NC(=O)CN1CC(c2ccccc2)CC1=O` (racemic) [Compound 2, (RS)-2-(2-oxo-4-phenylpyrrolidin-1-yl)acetamide], the LD50 at 14 days [1] is reported as 1000 mg/kg, the “effect on TSIP components (in words)” value (rabbits) is reported as “less pronounced than that of Compounds 1 and 3” and the “TSIP P1 + N1 amplitude” value (rabbits; [5]) is reported as “± (biphasic effect, less than 50% but not less than 20%)”. For the same compound, the “TSIP component N1 amplitude” value (rabbits; [5]) was “± (biphasic effect, less than 50% but not less than 20%)”, the “TSIP component P1 amplitude” value (rabbits; [5]) was “± (biphasic effect, less than 50% but not less than 20%)” and the “TSIP component P2 amplitude” value (rabbits; [5]) was “± (biphasic effect, less than 50% but not less than 20%)”.
With `NC(=O)CN1CC(c2ccccc2)CC1=O` (racemic) [Compound 3, (RS)-2-(2-oxo-4-phenylpyrrolidin-1-yl)acetamide] the LD50 (mice [2]) was 1050 (984.6-1115.3) mg/kg, the Dead/total number (rats; rats 30-35 days) was 0/10 and the “% of dead rat pups” value (rats) was 0%.
With `NC(=O)CN1CC(c2ccccc2)CC1=O` (racemic) [Compound 4, (RS)-2-(2-oxo-4-phenylpyrrolidin-1-yl)acetamide] the LD50 (mice [2]) was 904 mg/kg, the “effect on TSIP components (in words)” value (rabbits) was “no significant difference from the saline treated control” and the “Kt (trigger transmission coefficient)” value (mice [3]; HEF mice) was 3.9 ± 0.45. The “Number of compartment explorations” value (mice [3]; HEF mice) was 6.5 ± 0.7 //, the Number of surveillances (mice [3]; HEF mice) was 1.6 ± 0.2 and the “Kt (trigger transmission coefficient)” value (mice [3]; LEF mice) was 3.9 ± 0.4. The “Number of compartment explorations” value (mice [3]; LEF mice) was 7.0 ± 0.6 //, the Number of surveillances (mice [3]; LEF mice) was 1.8 ± 0.2 and the “Kt (trigger transmission coefficient)” value (mice [3]; population as a whole) was 3.9 ± 0.45. For the same compound, the “Number of compartment explorations” value (mice [3]; population as a whole) was 6.7 ± 0.7 // and the Number of surveillances (mice [3]; population as a whole) was 1.7 ± 0.2.
In the case of `NC(=O)CN1CC(c2ccccc2)CC1=O` (stereo not drawn) [N-carbamoylmethyl-4-phenyl-2-pyrrolidone, reference compound], the LD50 (mice [4]) is listed as 831 mg/kg.
